Test results as given in US5840697A, “Peptide inhibitors of calmodulin” (Torrey Pines Institute for Molecular Studies, priority 1996, dated 1998).
Square brackets hold non-standard residues; d marks the D form. Peptide text beside a SMILES is read from it.

Tests used:
[1] = test system: NRK cells; experiment: long term stability: number of NRK cells at 48 hr after activation; assay type: cell-based, rat; conditions: added at 5 hr, counted 48 hr after activation
Source text: The similar activity found for the (L)-amino acid peptides and (D)-amino acid peptides indicate that the inhibition of calmodulin occurs rapidly following the addition of the inhibitory peptides. The peptides' long term stability was then studied by adding Ac-(D)Leu-(D)Trp-(D)Arg-(D)Ile-(D)Leu-(D)Trp-NH2, Ac-Leu-Trp-Arg-Ile-Leu-Trp-NH2 (SEQ ID No. 48), W13 and W12 at 5 hr following the reentry of the NRK cells into the cell cycle and measuring the number of cells at 48 hr after activation.

[2] = test system: rat liver cells; experiment: in vivo rat model: DNA synthesis of rat liver cells after partial hepatectomy; conditions: intravenous injection 5 hours after partial hepatectomy, measured 24 hours post hepatectomy
Source text: The effect that calmodulin inhibitors have on DNA synthesis were also studied in vivo in a rat model. Rat liver cells are a useful in vivo system for studying synchronized cells and the cell cycle. By partial hepatectomy, the hepatocyte quiescent cells present in normal adult rat liver can be stimulated to enter the replicative cell cycle and the effect of inhibitors on the cycle analyzed. This example provides the effect of the subject calmodulin inhibitory peptides on the DNA synthesis of rat liver cells in partial hepatectomy stage following intra venal injection of the peptides.
Male Sprague-Dawley rats ([…]; 2 rats per peptide or control) were fasted overnight. Partial hepatectomies were carried out under Ketolar anesthesia (Parke-Davis; Ann Arbor, Mich.), following the procedure described by Higgins and Anderson in Arch. Pathol., 12:186-202 (1931), which is incorporated herein by reference. […] DNA synthesis was assessed by measuring the radioactivity incorporated into DNA following an intraperitoneal injection (0.5 mCi/g body weight) of [^3 H] thymidine 1 hr prior to killing the rat and at 23 hours post hepatectomy. […] The liver tissue was homogenized in 10% trifluoroacetic acid at 4° C. and the DNA extracted and its radioactivity measured following the procedure described by Burton, Biochem. J., 62:315-320 (1956), which is incorporated herein by reference. […]

[3] = molecular target: phosphodiesterase; experiment: calcium-dependent phosphodiesterase assay in the absence of calmodulin; assay type: biochemical; conditions: Table III
Description: To sample assay tubes were added the following components: assay buffer, 25 ul; CaCl2, 5 ul; 5'-nucleotidase, 7.5 ul (stock solution is 10 units/ml); calmodulin 5 units; calmodulin inhibitor peptides to obtain the desired final concentration of 50 μM. The volume was then made up to 200 ul with water. Control blanks were prepared replacing the peptides with water. The added components were thoroughly mixed and the tubes incubated at 30° C. for 10 min. Then, 25 ul of cAMP at 10.8 mM was added and incubated for 90 min at 30° C. The reaction was stopped by the addition of 50 ul of 55% trichloroacetic acid (TCA). The samples were centrifuged to remove the protein precipitate and the 50 ul of the supernatant was withdrawn for phosphate measurement. To the supernatant aliquot, 50 ul ammonium molybdate (0.55% in 1.1 N sulfuric acid) was added, followed by the addition of 5 ul of reducing agent (24 g sodium bisulfite, 2.4 g sodium sulfite, 0.5 g of 1-amino-2-naphthol-4-sulfonic acid in 200 ml of water), and the contents were mixed by vortexing. The absorbance of the solution were read at 660 nm using water as a blank, identified as control "Calmo."
As described above, one of the undesirable biological effects of existing calmodulin inhibitors is their non-specific binding to other proteins and the like. Therefore, the specificity of the instant inhibitory peptides for calmodulin was examined. The specificity was determined using the calcium-dependent phosphodiesterase assay described in Example I. The assay was carried out for the determination of IC50 values in the presence of calmodulin (IC50 value for calmodulin) and in the absence of calmodulin (IC50 for phosphodiesterase), the latter of which provides the effect of the inhibitory peptides on the phosphodiesterase.

[4] = molecular target: calmodulin (Homo sapiens, UniProt P0DP23); experiment: electrophoretic band shift assay of peptide-calmodulin complexes; assay type: binding
Description: The following samples were subjected to electrophoresis in the gel lane indicated:
Because melittin is known to bind to calmodulin as described, for example, in Comte et al., Biochem. J., 209:269-272 (1983), in the above samples melittin is the positive control. The samples were incubated with calmodulin at 22° C. for 1 hr, and electrophoresed on a 10% acrylamide gel in Tris-glycine buffer under nondenaturating conditions as described in Head and Perry, Biochem. J., 137:145-154 (1974), which is incorporated herein by reference. The gel was then stained with coomasie blue.
The band shifts were also measured using a densitometer. Determination of band width by densitometry was done on the following samples: (1) calmodulin (1 nmol)+EDTA (2 nmol); (2) calmodulin (1 nmol)+Ca^2+ (1 nmol)+Ac-(D)Leu-(D)Trp-(D)Arg-(D)Ile-(D)Leu-(D)Trp-NH2 (100 nmol); and (3) calmodulin (1 nmol)+Ca^2+ (1 nmol).

IC50 [3]: 118 µM
band shift (mobility change) on binding to calmodulin ([4]; in the presence of Ca2+): shifted relative to lane 8
band shift (mobility change) on binding to calmodulin ([4]; with EDTA (no calcium)): no band shift
Compound: CC[C@@H](C)[C@@H](NC(=O)[C@@H](CCCNC(=N)N)NC(=O)[C@@H](Cc1c[nH]c2ccccc12)NC(=O)[C@@H](CC(C)C)NC(C)=O)C(=O)N[C@H](CC(C)C)C(=O)N[C@H](Cc1c[nH]c2ccccc12)C(N)=O [Ac-(D)Leu-(D)Trp-(D)Arg-(D)Ile-(D)Leu-(D)Trp-NH2] (Ac-[dL][dW][dR][dI][dL][dW]-NH2)
number of cells relative to control cells [1]: significantly lower number of cells
% DNA SYNTHESIS [2]: 50%
